Structures can show the parent of a compound that is named as a salt.

This passage reports IC50 results from US9012443B2 (Amgen Inc., priority 2011, dated 2015).

Sequence of Nav 1.7 (Q15858 whole entry): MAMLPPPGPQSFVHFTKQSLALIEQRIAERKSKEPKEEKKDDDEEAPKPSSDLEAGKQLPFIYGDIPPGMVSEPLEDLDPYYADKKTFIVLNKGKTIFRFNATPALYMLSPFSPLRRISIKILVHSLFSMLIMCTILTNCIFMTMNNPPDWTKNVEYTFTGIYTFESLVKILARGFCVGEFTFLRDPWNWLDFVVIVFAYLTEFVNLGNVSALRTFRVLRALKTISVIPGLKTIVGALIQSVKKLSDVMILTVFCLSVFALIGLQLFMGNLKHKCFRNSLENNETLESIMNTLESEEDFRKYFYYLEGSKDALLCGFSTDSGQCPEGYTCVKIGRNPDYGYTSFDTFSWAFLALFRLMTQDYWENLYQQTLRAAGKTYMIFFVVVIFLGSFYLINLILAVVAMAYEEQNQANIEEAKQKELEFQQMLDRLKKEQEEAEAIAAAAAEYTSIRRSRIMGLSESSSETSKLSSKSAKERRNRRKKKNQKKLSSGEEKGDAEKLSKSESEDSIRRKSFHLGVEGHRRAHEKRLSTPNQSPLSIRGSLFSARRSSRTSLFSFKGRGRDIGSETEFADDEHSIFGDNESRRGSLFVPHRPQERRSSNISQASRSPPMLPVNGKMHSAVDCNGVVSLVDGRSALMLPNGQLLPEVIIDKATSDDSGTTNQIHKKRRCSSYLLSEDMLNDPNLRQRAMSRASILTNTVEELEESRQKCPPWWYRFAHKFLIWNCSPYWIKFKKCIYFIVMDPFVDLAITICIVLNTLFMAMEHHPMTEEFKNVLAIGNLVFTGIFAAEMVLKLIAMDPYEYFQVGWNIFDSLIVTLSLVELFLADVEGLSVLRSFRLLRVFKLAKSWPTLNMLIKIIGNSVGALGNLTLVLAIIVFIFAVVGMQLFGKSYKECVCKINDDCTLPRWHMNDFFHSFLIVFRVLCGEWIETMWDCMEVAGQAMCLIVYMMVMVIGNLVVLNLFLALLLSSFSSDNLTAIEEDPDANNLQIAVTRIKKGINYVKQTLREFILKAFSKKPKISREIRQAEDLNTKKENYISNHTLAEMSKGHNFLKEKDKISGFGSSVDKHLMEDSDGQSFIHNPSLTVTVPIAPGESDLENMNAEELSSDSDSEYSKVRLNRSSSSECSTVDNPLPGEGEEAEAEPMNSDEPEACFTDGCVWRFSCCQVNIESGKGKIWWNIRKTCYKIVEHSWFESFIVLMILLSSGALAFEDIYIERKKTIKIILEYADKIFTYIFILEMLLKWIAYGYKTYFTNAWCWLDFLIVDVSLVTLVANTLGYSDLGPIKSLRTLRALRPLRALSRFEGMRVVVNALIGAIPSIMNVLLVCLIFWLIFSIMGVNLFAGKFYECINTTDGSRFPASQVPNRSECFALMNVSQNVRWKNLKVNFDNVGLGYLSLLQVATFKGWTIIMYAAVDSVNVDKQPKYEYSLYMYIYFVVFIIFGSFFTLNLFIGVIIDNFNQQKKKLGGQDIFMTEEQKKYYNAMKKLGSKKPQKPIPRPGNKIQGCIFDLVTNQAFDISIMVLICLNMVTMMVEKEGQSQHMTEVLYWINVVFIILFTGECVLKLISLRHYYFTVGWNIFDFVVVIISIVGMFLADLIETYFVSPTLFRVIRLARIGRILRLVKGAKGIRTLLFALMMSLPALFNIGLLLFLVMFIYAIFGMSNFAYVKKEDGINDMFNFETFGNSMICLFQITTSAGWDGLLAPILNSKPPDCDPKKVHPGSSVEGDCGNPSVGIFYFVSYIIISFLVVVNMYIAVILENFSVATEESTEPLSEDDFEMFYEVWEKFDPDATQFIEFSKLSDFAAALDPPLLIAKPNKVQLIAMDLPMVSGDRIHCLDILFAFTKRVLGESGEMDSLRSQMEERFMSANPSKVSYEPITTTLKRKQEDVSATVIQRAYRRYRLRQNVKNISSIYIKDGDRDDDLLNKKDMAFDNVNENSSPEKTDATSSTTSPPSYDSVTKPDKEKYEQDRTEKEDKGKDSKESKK

The assay has as its target Nav 1.7 (Homo sapiens (Human), UniProt Q15858). The experiment in a line: Nav 1.7 in vitro PX assay (PatchXpress whole cell voltage clamp). It counts as cell-based. The note with it: 293 cells, human Nav1.7, partially inactivated state; read-out: Nav1.7 PX IC50 IP. Here is the method: Nav 1.7 In Vitro PX Assay
293 cells stably transfected with human Nav1.7 were recorded in whole cell voltage clamp mode with the PatchXpress automated electrophysiology system (Molecular Devices, LLC, Sunnyvale, Calif.). Compound effects were measured on a partially inactivated state of the sodium channel. Cells were clamped to a holding potential yielding 20 to 50% inactivation. To elicit sodium current, channels were activated by pulsing to −10 mV for 20 msec. […] A single concentration of test compound was applied to cells for a duration of 3 minutes. Peak sodium current was measured at the end of the compound addition period to determine percent inhibition. Three to five cells were tested per concentration, and IC50 curves were fitted to percent inhibition as a function of concentration.
For `O=S(=O)(Nc1ncns1)c1ccc2c(N3CCC[C@H]3c3cccnc3)cccc2c1` (single isomer, unassigned) [Example 86], the IC50 was determined as 62.7 nM.

As for `O=S(=O)(Nc1ncns1)c1ccc2c(N3CCC[C@@H]3c3ccncc3)cccc2c1` (single isomer, unassigned) [Example 90], the IC50 amounted to 39.3 nM.

As to `O=S(=O)(Nc1nccs1)c1ccc2c(-c3ccc(F)cc3C3=CCOC3)nccc2c1` [Example 127, 1-(2-(2,5-DIHYDROFURAN-3-YL)-4-FLUOROPHENYL)-N-(THIAZOL-2-YL)ISOQUINOLINE-6-SULFONAMIDE TRIFLUOROACETATE], the IC50 was 2220 nM.

On to `Cn1cc(-c2cc(F)ccc2-c2nccc3cc(S(=O)(=O)Nc4nccs4)ccc23)cn1` [Example 129, 1-(4-FLUORO-2-(1-METHYL-1H-PYRAZOL-4-YL)PHENYL)-N-(THIAZOL-2-YL)ISOQUINOLINE-6-SULFONAMIDE TRIFLUOROACETATE], for which the IC50 is 8000 nM.

As for `Cc1ccccc1-c1nccc2cc(S(=O)(=O)Nc3nccs3)ccc12` [Example 178, N-(THIAZOL-2-YL)-1-(O-TOLYL)ISOQUINOLINE-6-SULFONAMIDE], the IC50 was found to be 1850 nM.

Take `O=S(=O)(Nc1nccs1)c1ccc2c(-c3ccccc3Cl)nccc2c1` [Example 179, 1-(2-CHLOROPHENYL)-N-(THIAZOL-2-YL)ISOQUINOLINE-6-SULFONAMIDE]: the IC50 came out at 1300 nM.

With `O=S(=O)(Nc1nccs1)c1ccc2c(-c3ccc(F)cc3Oc3ccccn3)nccc2c1` [Example 191, 1-(4-FLUORO-2-(PYRIDIN-2-YLOXY)PHENYL)-N-(THIAZOL-2-YL)ISOQUINOLINE-6-SULFONAMIDE], the IC50 was found to be 13900 nM.

For the compound `COc1cc(F)ccc1-c1ncc(O)c2cc(S(=O)(=O)Nc3nccs3)ccc12` [Example 233, 1-(4-FLUORO-2-METHOXYPHENYL)-4-HYDROXY-N-(THIAZOL-2-YL)ISOQUINOLINE-6-SULFONAMIDE 2,2,2-TRIFLUOROACETATE], the IC50 amounted to 510 nM.

For the compound `COc1ccccc1-c1ncc(O)c2cc(S(=O)(=O)Nc3nccs3)ccc12` [Example 234, 4-HYDROXY-1-(2-METHOXYPHENYL)-N-(THIAZOL-2-YL)ISOQUINOLINE-6-SULFONAMIDE 2,2,2-TRIFLUOROACETATE], the IC50 is 980 nM.

`COc1cc(C(F)(F)F)ccc1-c1nccc2cc(S(=O)(=O)N=C3NC(=O)CS3)ccc12` [Example 248, (E/Z)-1-(2-METHOXY-4-(TRIFLUOROMETHYL)PHENYL)-N-(4-OXOTHIAZOLIDIN-2-YLIDENE)ISOQUINOLINE-6-SULFONAMIDE]: the IC50 is 910 nM.

In the case of `COc1cc(C(F)(F)F)ccc1-c1cnnc2cc(S(=O)(=O)Nc3ccncn3)ccc12` [Example 260, 4-(2-METHOXY-4-(TRIFLUOROMETHYL)PHENYL)-N-(PYRIMIDIN-4-YL)CINNOLINE-7-SULFONAMIDE], the IC50 came to 1270 nM.

As to `COc1cc(C(F)(F)F)ccc1-c1ccnc2cc(S(=O)(=O)Nc3ccncn3)ccc12` [Example 279, 4-(2-METHOXY-4-(TRIFLUOROMETHYL)PHENYL)-N-(PYRIMIDIN-4-YL)QUINOLINE-7-SULFONAMIDE], the IC50 turned out to be 580 nM.

On to `COc1cc(C#N)ccc1-c1ccnc2cc(S(=O)(=O)Nc3ccncn3)ccc12` [Example 280, 4-(4-CYANO-2-METHOXYPHENYL)-N-(PYRIMIDIN-4-YL)QUINOLINE-7-SULFONAMIDE], for which the IC50 came to 4450 nM.

On to `COc1ccccc1-c1ccnc2cc(S(=O)(=O)Nc3ccncn3)ccc12` [Example 281, 4-(2-METHOXYPHENYL)-N-(PYRIMIDIN-4-YL)QUINOLINE-7-SULFONAMIDE], for which the IC50 was found to be 1930 nM.

Regarding `COc1cc(C(F)(F)F)ccc1-c1ccnc2cc(S(=O)(=O)Nc3nccs3)cc(C)c12` [Example 282, 4-(2-METHOXY-4-(TRIFLUOROMETHYL)PHENYL)-5-METHYL-N-(THIAZOL-2-YL)QUINOLINE-7-SULFONAMIDE], the IC50 was 3290 nM.

As for `COc1cc(C#N)ccc1-c1cncc2cc(S(=O)(=O)Nc3ccncn3)ccc12` [Example 286, 4-(4-CYANO-2-METHOXYPHENYL)-N-(PYRIMIDIN-4-YL)ISOQUINOLINE-7-SULFONAMIDE HYDROCHLORIDE], the IC50 worked out at 4220 nM.

For `COc1ccccc1-c1cncc2cc(S(=O)(=O)Nc3ccncn3)ccc12` [Example 287, 4-(2-METHOXYPHENYL)-N-(PYRIMIDIN-4-YL)ISOQUINOLINE-7-SULFONAMIDE HYDROCHLORIDE], the IC50 is 4150 nM.

For the compound `COc1cc(F)ccc1-c1cncc2cc(S(=O)(=O)Nc3nccs3)ccc12` [Example 290, 4-(4-FLUORO-2-METHOXYPHENYL)-N-(THIAZOL-2-YL)ISOQUINOLINE-7-SULFONAMIDE], the half-maximal inhibitory concentration (IC50) stood at 600 nM.

For `COc1cc(C(F)(F)F)ccc1-c1ccnc2cc(S(=O)(=O)Nc3nccs3)ncc12` [Example 294, 4-(2-METHOXY-4-(TRIFLUOROMETHYL)PHENYL)-N-(THIAZOL-2-YL)-1,6-NAPHTHYRIDINE-7-SULFONAMIDE], the IC50 was determined as 2500 nM.

On to `Cc1cc(C#N)ccc1-c1ccnc2cc(S(=O)(=O)Nc3ncns3)ccc12` [Example 323], for which the IC50 is 2300 nM.

In the case of `COc1ccccc1-c1c(Br)cnc2cc(S(=O)(=O)Nc3nccs3)ccc12` [Example 325, 3-BROMO-4-(2-METHOXYPHENYL)-N-(THIAZOL-2-YL)QUINOLINE-7-SULFONAMIDE], the IC50 was 5110 nM.

Regarding `COc1cc(C(F)(F)F)ccc1-c1ccnc2cc(S(=O)(=O)Nc3nccs3)c(OC)cc12` [Example 327, 6-METHOXY-4-(2-METHOXY-4-(TRIFLUOROMETHYL)PHENYL)-N-(THIAZOL-2-YL)QUINOLINE-7-SULFONAMIDE], the IC50 was 2340 nM.

As for `COc1cc(C(F)(F)F)ccc1-c1ccnc2c(C)c(S(=O)(=O)Nc3nccs3)ccc12` [Example 328, 4-(2-METHOXY-4-(TRIFLUOROMETHYL)PHENYL)-8-METHYL-N-(THIAZOL-2-YL)QUINOLINE-7-SULFONAMIDE], the IC50 stood at 6870 nM.

As to `COc1cc(-c2cccc(F)c2)c(Cl)cc1-c1nccc2cc(S(=O)(=O)Nc3ncns3)ccc12` [Example 331, 1-(2-CHLORO-3′-FLUORO-5-METHOXY-[1,1′-BIPHENYL]-4-YL)-N-(1,2,4-THIADIAZOL-5-YL)ISOQUINOLINE-6-SULFONAMIDE], the IC50 worked out at 23 nM.

Turning to `COc1cc(-c2cccc(F)c2)c(Cl)cc1-c1nccc2cc(S(=O)(=O)Nc3cnsn3)ccc12` [Example 334, 1-(2-CHLORO-3′-FLUORO-5-METHOXY-[1,1′-BIPHENYL]-4-YL)-N-(1,2,5-THIADIAZOL-3-YL)ISOQUINOLINE-6-SULFONAMIDE], the IC50 was found to be 109 nM.

For `COc1cc(-c2ccc(F)nc2)ccc1-c1nccc2cc(S(=O)(=O)Nc3ccncn3)ccc12` [Example 352, 1-(4-(6-FLUOROPYRIDIN-3-YL)-2-METHOXYPHENYL)-N-(PYRIMIDIN-4-YL)ISOQUINOLINE-6-SULFONAMIDE], the IC50 is 1870 nM.

`COc1ccc(C2=CCOCC2)cc1-c1nccc2cc(S(=O)(=O)Nc3ccncn3)ccc12` [Example 353, 1-(5-(3,6-DIHYDRO-2H-PYRAN-4-YL)-2-METHOXYPHENYL)-N-(PYRIMIDIN-4-YL)ISOQUINOLINE-6-SULFONAMIDE]: the IC50 was found to be 5170 nM.

For the compound `Cc1cc(Cl)ccc1-c1nccc2cc(S(=O)(=O)Nc3ccncn3)ccc12` [Example 357], the IC50 is 1850 nM.

`Cc1cc(C#N)ccc1-c1nccc2cc(S(=O)(=O)Nc3ncns3)ccc12` [Example 359]: the IC50 is 2380 nM.

For `COc1cc(OCC(F)(F)F)ccc1-c1nccc2cc(S(=O)(=O)Nc3ccncn3)ccc12` [Example 362, 1-(2-METHOXY-4-(2,2,2-TRIFLUOROETHOXY)PHENYL)-N-(PYRIMIDIN-4-YL)ISOQUINOLINE-6-SULFONAMIDE], the IC50 is 1070 nM.

Regarding `COc1cc(-c2cccnc2)c(F)cc1-c1nccc2cc(S(=O)(=O)Nc3nncs3)ccc12` [Example 367, 1-(5-FLUORO-2-METHOXY-4-(PYRIDIN-3-YL)PHENYL)-N-(1,3,4-THIADIAZOL-2-YL)ISOQUINOLINE-6-SULFONAMIDE], the IC50 was 1420 nM.

For the compound `COc1cc(-c2cc(F)cc(F)c2)ccc1-c1nccc2cc(S(=O)(=O)Nc3nnco3)ccc12` [Example 372, 1-(3′,5′-DIFLUORO-3-METHOXY-[1,1′-BIPHENYL]-4-YL)-N-(1,3,4-OXADIAZOL-2-YL)ISOQUINOLINE-6-SULFONAMIDE], the IC50 is 16600 nM.

Consider `N#CCOc1cc(Cl)ccc1-c1nccc2cc(S(=O)(=O)Nc3ccncn3)ccc12` [Example 376, 1-(4-CHLORO-2-(CYANOMETHOXY)PHENYL)-N-(PYRIMIDIN-4-YL)ISOQUINOLINE-6-SULFONAMIDE 2,2,2-TRIFLUOROACETATE], for which the IC50 was found to be 2940 nM.

Turning to `Cc1cnc(F)c(-c2nccc3cc(S(=O)(=O)Nc4nccs4)ccc23)c1` [Example 377, 1-(2-FLUORO-5-METHYLPYRIDIN-3-YL)-N-(THIAZOL-2-YL)ISOQUINOLINE-6-SULFONAMIDE], the IC50 turned out to be 24500 nM.

As for `Cc1cnc(OC2CCNCC2)c(-c2nccc3cc(S(=O)(=O)Nc4nccs4)ccc23)c1` [Example 378, 1-(5-METHYL-2-(PIPERIDIN-4-YLOXY)PYRIDIN-3-YL)-N-(THIAZOL-2-YL)ISOQUINOLINE-6-SULFONAMIDE], the IC50 is 2420 nM.

`CC(C)(O)c1ccccc1-c1nccc2cc(S(=O)(=O)Nc3nccs3)ccc12` [Example 384, 1-(2-(2-HYDROXYPROPAN-2-YL)PHENYL)-N-(THIAZOL-2-YL)ISOQUINOLINE-6-SULFONAMIDE]: the IC50 was determined as 6710 nM.

Take `N#Cc1cc(C(F)(F)F)ccc1-c1nccc2cc(S(=O)(=O)Nc3nccs3)ccc12` [Example 386, 1-(2-CYANO-4-(TRIFLUOROMETHYL)PHENYL)-N-(THIAZOL-2-YL)ISOQUINOLINE-6-SULFONAMIDE]: the IC50 was 1390 nM.

`COc1cc(C(F)(F)F)ccc1-c1nccc2cc(S(=O)(=O)Nc3cnsn3)ccc12` [Example 388, 1-(2-METHOXY-4-(TRIFLUOROMETHYL)PHENYL)-N-(1,2,5-THIADIAZOL-3-YL)ISOQUINOLINE-6-SULFONAMIDE]: the IC50 came out at 1750 nM.

The IC50 is the concentration that inhibits the measured activity by half.
